Measurements published in the OligoGym collection.
HELM strings list units from the 5' end as sugar, base in round brackets, then linkage (d deoxyribose, r ribose, m 2'-O-methyl, p phosphodiester). Strings are as the collection lists them; they lack the last nucleoside at the 3' end of the tested compound. [moe] = 2'-O-(2-methoxyethyl) (MOE); [sp] = phosphorothioate linkage; [m5C] = 5-methylcytosine

target: UBE3A-ATS; assay: mouse, dose not given; settings: ASO

Row | Substance | 3 h FOB score
1 | RNA1{[moe](T)[sp].[moe](T)p.[moe]([m5C])p.[moe](A)[sp].d([m5C])[sp].d([m5C])[sp].d(A)[sp].d(T)[sp].d(T)[sp].d(T)[sp].d(T)[sp].d(G)[sp].[moe](A)p.[moe]([m5C])p.[moe]([m5C])p.[moe](T)[sp].[moe](T)}$$$$ (last 3' nucleoside missing) | 0 score 0-7
2 | RNA1{[moe](T)[sp].[moe](T)p.[moe]([m5C])p.[moe](A)p.[moe](T)p.d([m5C])[sp].d(A)[sp].d(G)[sp].d(T)[sp].d(T)[sp].d(A)[sp].d(G)[sp].d(T)[sp].d([m5C])[sp].d(A)[sp].[moe](G)p.[moe](G)p.[moe](T)[sp].[moe](T)}$$$$ (last 3' nucleoside missing) | 4 score 0-7
3 | RNA1{[moe](T)[sp].[moe](T)p.[moe]([m5C])p.[moe](A)p.[moe]([m5C])p.[moe]([m5C])p.d(A)[sp].d(T)[sp].d(T)[sp].d(T)[sp].d(T)[sp].d(G)[sp].d(A)[sp].d([m5C])[sp].d([m5C])[sp].d(T)[sp].[moe](T)p.[moe]([m5C])[sp].[moe](T)}$$$$ (last 3' nucleoside missing) | 0 score 0-7
4 | RNA1{[moe](T)[sp].[moe](T)p.[moe]([m5C])p.[moe](A)p.[moe]([m5C])p.d([m5C])[sp].d(A)[sp].d(T)[sp].d(T)[sp].d(T)[sp].d(T)[sp].d(G)[sp].d(A)[sp].d([m5C])[sp].d([m5C])[sp].[moe](T)p.[moe](T)p.[moe]([m5C])[sp].[moe](T)}$$$$ (last 3' nucleoside missing) | 1 score 0-7
5 | RNA1{[moe](T)[sp].[moe](T)p.[moe]([m5C])p.[moe](A)p.d([m5C])[sp].d([m5C])[sp].d(A)[sp].d(T)[sp].d(T)[sp].d(T)[sp].d(T)[sp].d(G)[sp].d(A)[sp].d([m5C])[sp].[moe]([m5C])p.[moe](T)p.[moe](T)p.[moe]([m5C])[sp].[moe](T)}$$$$ (last 3' nucleoside missing) | 1 score 0-7
6 | RNA1{[moe](T)[sp].[moe](T)p.[moe]([m5C])p.[moe](T)p.[moe](G)p.d(G)[sp].d(A)[sp].d(A)[sp].d(T)[sp].d([m5C])[sp].d(T)[sp].d(T)[sp].d(G)[sp].d(T)[sp].d(A)[sp].[moe](G)p.[moe](A)p.[moe](G)[sp].[moe](G)}$$$$ (last 3' nucleoside missing) | 3 score 0-7
7 | RNA1{[moe](T)[sp].[moe](T)p.[moe]([m5C])p.[moe](T)p.[moe](T)p.d(G)[sp].d([m5C])[sp].d(T)[sp].d(G)[sp].d(A)[sp].d(T)[sp].d([m5C])[sp].d(A)[sp].d([m5C])[sp].d(A)[sp].[moe](T)p.[moe](T)p.[moe](A)[sp].[moe]([m5C])}$$$$ (last 3' nucleoside missing) | 0 score 0-7
8 | RNA1{[moe](T)[sp].[moe](T)p.[moe]([m5C])p.[moe](T)p.[moe]([m5C])p.d(A)[sp].d([m5C])[sp].d([m5C])[sp].d(T)[sp].d(A)[sp].d(G)[sp].d(G)[sp].d([m5C])[sp].d(T)[sp].d(G)[sp].[moe](G)p.[moe](G)p.[moe]([m5C])[sp].[moe]([m5C])}$$$$ (last 3' nucleoside missing) | 2.8 score 0-7
9 | RNA1{[moe](T)[sp].[moe](T)p.[moe]([m5C])p.[moe]([m5C])p.[moe]([m5C])p.d(A)[sp].d(T)[sp].d(T)[sp].d([m5C])[sp].d(A)[sp].d(G)[sp].d([m5C])[sp].d(A)[sp].d([m5C])[sp].d(T)[sp].[moe](T)p.[moe](A)p.[moe](G)[sp].[moe](G)}$$$$ (last 3' nucleoside missing) | 3.3 score 0-7
10 | RNA1{[moe](T)[sp].[moe]([m5C])[sp].[moe]([m5C])[sp].[moe](T)[sp].[moe](T)[sp].d(T)[sp].d(A)[sp].d(G)[sp].d([m5C])[sp].d(A)[sp].d(T)[sp].d(T)[sp].d(T)[sp].d([m5C])[sp].d(T)[sp].[moe](A)[sp].[moe](T)[sp].[moe](T)[sp].[moe](A)}$$$$ (last 3' nucleoside missing) | 6.5 score 0-7
